Results reported in paper PMC7857580, “Substitutional landscape of a split fluorescent protein fragment using high-density peptide microarrays” (PLoS ONE, 2021).
Ends that are not written are not given here.

target: LOO10-GFP (Aequorea victoria, UniProt P42212, S30R/Y39N/F64L/S65T/F99S/N105T/Y145F/M153T/V163A/I171V, form not given); type: binding; conditions: read-out: Kd (dissociation constant between s10 peptide and LOO10-GFP); 50 nM LOO10-GFP, 0-2500 nM peptide, assay buffer pH 8, overnight 4°C, read at 25°C; 390ex/506em (WT, H199Y) or 495ex/520em (T203Y, H199Y/T203Y); quadratic fit; 3 independent measurements
Protocol: Fluorescence of each sample was measured at 390/506 nm for T203 variants and at 495/520 nm for Y203 variants, at 25°C, excitation slit 12 nm, emission slit 20 nm and 10s integration time. The affinity experiments were performed in 3 independent replicas for each peptide variant. […] All fits were performed in OriginPro 2017.

Sequence of LOO10-GFP (P42212 whole entry S30R/Y39N/F64L/S65T/F99S/N105T/Y145F/M153T/V163A/I171V, form open): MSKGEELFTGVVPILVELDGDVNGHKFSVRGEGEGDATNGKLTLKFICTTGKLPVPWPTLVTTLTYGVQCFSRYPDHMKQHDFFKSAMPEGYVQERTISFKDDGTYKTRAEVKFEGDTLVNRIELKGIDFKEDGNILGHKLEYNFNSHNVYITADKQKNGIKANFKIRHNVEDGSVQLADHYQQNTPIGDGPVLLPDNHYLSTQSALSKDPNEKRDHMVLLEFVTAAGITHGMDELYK

Sequence	Kd
NHYLSTQTVLS [WT]	280 ± 83 nM
NHYLSYQTVLS [T203Y]	152 ± 47 nM
NYYLSTQTVLS [H199Y]	53.4 ± 0.4 nM
NYYLSYQTVLS [H199Y/T203Y]	32.6 ± 6.3 nM
